Experimental data from patent publication US11767316B2, “Non-fused thiophene derivatives and their uses” (ENYO PHARMA, priority 2018, dated 2023).

Legend:
LXFL 1121 = assay: Cytotoxicity, propidium iodide based monolayer assay, LXFL 1121; conditions: 96 h; LXFL 1121 (lung large cell carcinoma), four days of treatment, T/C=50%; read-out: Absolute IC50
Procedure: The cytotoxicity was tested for compounds of the invention on five different cell-lines, namely LXFL 1121, MAXF 401, MMXF L-636, PRXF PC-3M and UXF 1138 which are respectively lung large cell carcinoma, breast adeno carcinoma, multiple myeloma, prostate adeno carcinoma and uterine sarcoma.
A working stock solution of the test compounds was prepared in DMSO at a concentration of 33 mM or 8.25 mM, and small aliquots were stored at −20° C. On each day of an experiment, a frozen aliquot of the working stock solution was thawed and stored at room temperature prior to and during treatment.
All liquid handling steps were performed using the Tecan Freedom EVO 200 platform. First, serial 2-fold dilutions of the 33 mM DMSO working stock solution were done in DMSO. […]
A modified propidium iodide (PI) based monolayer assay was used to assess the anti-cancer activity of the compounds. Briefly, cells were harvested from exponential phase cultures, counted and plated in 96 well flat-bottom microtiter plates at a cell density of 4,000 to 40,000 cells/well dependent on the cell line's growth rate. […] After an incubation period of 1-2 hours at room temperature, fluorescence (FU) was measured using the Enspire Multimode Plate Reader (excitation λ=530 nm, emission λ=620 nm) to quantify the amount of attached viable cells. […]

[1] = tested on: H1N1 (influenza A/New Caledonia/20/99); assay: Antiviral effect on A549 cells infected with H1N1 (MUNANA neuraminidase readout); format: cell-based; conditions: H1N1 A/New Caledonia/20/99 at MOI 0.1, 48 h post-infection, MUNANA fluorescence, read-out: IC50
Procedure: The antiviral effect of the compounds of the invention have been tested on A549 cell lines infected with H1N1 (influenza A/New Caledonia/20/99).
Human A549 cells (80,000 cells/well in a 96 well plate) were treated with a range of concentration of test compounds and immediately infected by H1N1 A/New Caledonia/20/99 virus (clinical isolate) at MOI of 0.1 in DMEM/1% Penicillin/streptomycin supplemented with 0.25 μg/ml TPCK trypsin (Sigma) and incubated at 37° C. in 5% CO2. 48 h post-infection, supernatants (25 μl) were collected and transferred into a 96-well black flat-bottom plate, mixed with 25 μl PBS with Ca++/Mg++(Thermo Fisher) and 50 μl of 2′-(4-Methylumbelliferyl)-α-D-N-acetylneuraminic acid sodium salt hydrate stock-solution (20 μM, MUNANA, Sigma). Plates were incubated 1 h at 37° C. and reaction is stopped by adding 100 μl of Stop Solution (glycine 0.1 M pH10.7/25% ethanol). The amount of fluorescent product released by MUNANA hydrolysis (4-MU) was measured in a Tecan spectrophotometer with excitation and emission wavelengths of 365 and 450 nm respectively.

O=C(Nc1scc(C2CCc3ccccc3C2)c1C(=O)O)c1ccccc1 (centres unmarked) [#16]
IC50 (LXFL 1121): 878 nM | IC50 [1]: 11.1 nM
